The test system of the first test is rat embryonic (E18) hippocampal neurons. Description: Neurite outgrowth screening assay with hippocampal neurons. The note with it: neurite total length as percentage of control; concentration 32 (unit not given). In kind it is cell-based. The text has this: Neurite Outgrowth Screening Assay with Hippocampal Neurons. Kinase inhibitor libraries were screened in a neurite outgrowth assay. Compounds were screened on rat embryonic (E18) hippocampal neurons cultured for 2 DIV on poly-D-lysine. Plates were fixed, immunostained, and imaged. Screened compounds were classified based on their effects on neurite total length, expressed as percentage of control (% NTL), which served as the biological activity referenced in FIG. 1, for this example. Hits were defined as compounds whose biologic activity (% NTL) reached at least 130% in two independent experiments (hits: % NTL 130; non-hits: % NTL<130). That is, in this example an NTL of 130 was used as the threshold measure (see, e.g., FIGS. 8 and 9). […] A stratification (assurance) step was performed by eliminating from subsequent analysis compounds that had biologic activity within 1 standard deviation of the hit threshold (130±15) (see, e.g., FIG. 6A). Compounds that reduced viable cell count (biologic activity) by more than 40% at concentrations below 800 nM were considered to be toxic and also excluded from subsequent analysis.
For `c1ccc(-c2cnc(Nc3ccc(OCCN4CCCC4)cc3)s2)cc1` [Flt-3 Inhibitor III], the “NTL_32 (neurite outgrowth, % NTL)” value worked out at 227.0293%.
For the compound `NS(=O)(=O)c1cccc(N/C=C2\C(=O)Nc3ccc(S(=O)(=O)Cc4c(Cl)cccc4Cl)cc32)c1` [GSK398099A], the “NTL_32 (neurite outgrowth, % NTL)” value is 100.7527%.
`NC[C@H](CC1CCCCC1)NC(=O)c1ccc(-c2ccnc3[nH]ccc23)s1` [GSK1581428A]: the “NTL_32 (neurite outgrowth, % NTL)” value is recorded as 229.399%.
`N#Cc1ccc(-c2cc(-c3c[nH]nc3-c3ccccn3)ccn2)cc1` [GW693028X]: the “NTL_32 (neurite outgrowth, % NTL)” value worked out at 114.3254%.
On the same count and under the same terms, with `N#CC(=C(N)Sc1ccc(N)cc1)c1ccccc1C(F)(F)F` [MEK1/2 Inhibitor] the figure was 109.3381%; with `Cl.O=S(=O)(c1cccc2c(I)cccc12)N1CCCNCC1` [ML-7, Hydrochloride], 193.8632%.

Staying with this test, now noted: neurite total length as percentage of control; concentration 160 (unit not given).
In the case of `c1ccc(-c2cnc(Nc3ccc(OCCN4CCCC4)cc3)s2)cc1` [Flt-3 Inhibitor III], the “NTL_160 (neurite outgrowth, % NTL)” value was determined as 250.8023%.
Turning to `NS(=O)(=O)c1cccc(N/C=C2\C(=O)Nc3ccc(S(=O)(=O)Cc4c(Cl)cccc4Cl)cc32)c1` [GSK398099A], the “NTL_160 (neurite outgrowth, % NTL)” value is 86.99%.
On the same count and under the same terms, with `NC[C@H](CC1CCCCC1)NC(=O)c1ccc(-c2ccnc3[nH]ccc23)s1` [GSK1581428A] the figure was 335.5001%; with `N#Cc1ccc(-c2cc(-c3c[nH]nc3-c3ccccn3)ccn2)cc1` [GW693028X], 101.7908%.
As for `N#CC(=C(N)Sc1ccc(N)cc1)c1ccccc1C(F)(F)F` [MEK1/2 Inhibitor], the “NTL_160 (neurite outgrowth, % NTL)” value was 101.2957%.
Still for that read-out and setting: with `Cl.O=S(=O)(c1cccc2c(I)cccc12)N1CCCNCC1` [ML-7, Hydrochloride] the figure was 288.4679%.

The same test, now with this note: neurite total length as percentage of control; concentration 800 (unit not given).
`c1ccc(-c2cnc(Nc3ccc(OCCN4CCCC4)cc3)s2)cc1` [Flt-3 Inhibitor III]: the “NTL_800 (neurite outgrowth, % NTL)” value turned out to be 291.5283%.
The same measure, in the same setting: with `NS(=O)(=O)c1cccc(N/C=C2\C(=O)Nc3ccc(S(=O)(=O)Cc4c(Cl)cccc4Cl)cc32)c1` [GSK398099A] the figure was 91.2121%.
The same measure, in the same setting: the figure for `NC[C@H](CC1CCCCC1)NC(=O)c1ccc(-c2ccnc3[nH]ccc23)s1` [GSK1581428A] is 262.488%.
The same measure, in the same setting: with `N#Cc1ccc(-c2cc(-c3c[nH]nc3-c3ccccn3)ccn2)cc1` [GW693028X] the figure was 99.07%; with `N#CC(=C(N)Sc1ccc(N)cc1)c1ccccc1C(F)(F)F` [MEK1/2 Inhibitor], 104.668%.
As to `Cl.O=S(=O)(c1cccc2c(I)cccc12)N1CCCNCC1` [ML-7, Hydrochloride], the “NTL_800 (neurite outgrowth, % NTL)” value was 285.3279%.

Still in this test, the particulars now being: neurite total length as percentage of control; concentration 4000 (unit not given).
`c1ccc(-c2cnc(Nc3ccc(OCCN4CCCC4)cc3)s2)cc1` [Flt-3 Inhibitor III]: the “NTL_4000 (neurite outgrowth, % NTL)” value is 105.129%.
As to `NS(=O)(=O)c1cccc(N/C=C2\C(=O)Nc3ccc(S(=O)(=O)Cc4c(Cl)cccc4Cl)cc32)c1` [GSK398099A], the “NTL_4000 (neurite outgrowth, % NTL)” value was 234.4329%.
For `NC[C@H](CC1CCCCC1)NC(=O)c1ccc(-c2ccnc3[nH]ccc23)s1` [GSK1581428A], the “NTL_4000 (neurite outgrowth, % NTL)” value stood at 92.84%.
Same read-out and setting: the figure for `N#Cc1ccc(-c2cc(-c3c[nH]nc3-c3ccccn3)ccn2)cc1` [GW693028X] is 110.3241%.
Same read-out and setting: the figure for `N#CC(=C(N)Sc1ccc(N)cc1)c1ccccc1C(F)(F)F` [MEK1/2 Inhibitor] is 120.1756%; for `Cl.O=S(=O)(c1cccc2c(I)cccc12)N1CCCNCC1` [ML-7, Hydrochloride] it is 269.3169%.

Still in this test, the particulars now being: neurite total length as percentage of control; concentration 20000 (unit not given).
For `c1ccc(-c2cnc(Nc3ccc(OCCN4CCCC4)cc3)s2)cc1` [Flt-3 Inhibitor III], the “NTL_20000 (neurite outgrowth, % NTL)” value is 48.44%.
Consider `NS(=O)(=O)c1cccc(N/C=C2\C(=O)Nc3ccc(S(=O)(=O)Cc4c(Cl)cccc4Cl)cc32)c1` [GSK398099A], for which the “NTL_20000 (neurite outgrowth, % NTL)” value is on record as 357.738%.
Still for that read-out and setting: the figure for `NC[C@H](CC1CCCCC1)NC(=O)c1ccc(-c2ccnc3[nH]ccc23)s1` [GSK1581428A] is 36.79%.
The same measure, in the same setting: with `N#Cc1ccc(-c2cc(-c3c[nH]nc3-c3ccccn3)ccn2)cc1` [GW693028X] the figure was 296.1224%.
On the same count and under the same terms, the figure for `N#CC(=C(N)Sc1ccc(N)cc1)c1ccccc1C(F)(F)F` [MEK1/2 Inhibitor] is 286.068%.
For `Cl.O=S(=O)(c1cccc2c(I)cccc12)N1CCCNCC1` [ML-7, Hydrochloride], the “NTL_20000 (neurite outgrowth, % NTL)” value is listed as 70.23%.

For the next test, the system named is representative anti-target kinases. Kind of test: Target/anti-target activity matrix from kinase profiling. In kind it is biochemical. The settings on record: FIG. 3B matrix. Here is the method: (§1) Activity Profiling of Screened Kinase Inhibitors. In vitro profiling of kinase inhibitors against a panel of 190 kinases was performed. Out of bound values were cropped, whereby values below 0% were adjusted to 0%, and values above 100% were adjusted to 100%.
(§2) FIG. 3B illustrates a resultant target-anti-target activity matrix developed by the identification system (e.g., at process 114). The target/anti-target matrix identifies protein target groups separately from protein anti-target groups, where each group type may be ranked according to various factors, such as biologic activity and inhibition bias. Engagement of the protein targets in the matrix promotes a biological activity; and engagement of the protein anti-targets in the matrix impedes the biological activity. In the particular example of FIG. 3B, representative protein kinases for each kinase group and the compounds that inhibit at least one member in the group by ≧10% are shown. […] Compounds are arranged top to bottom in order of decreasing maximum % NTL (right-hand color scale). […] RO0480500-002 accordingly produced % NTL up to 400%, well above the % NTL of any of the other compound. […]
With `COc1cc(N2CCC(N3CCN(C)CC3)CC2)ccc1Nc1ncnc(Nc2ccccc2S(=O)(=O)C(C)C)n1` [ASP3026], the “inhibition of representative anti-target kinases” value is “does not inhibit any”.

Another test deals with representative target kinases. Described as above. In kind it is biochemical. The note with it: FIG. 3B matrix; seven targets. The procedure: as §1, §2
With `COc1cc(N2CCC(N3CCN(C)CC3)CC2)ccc1Nc1ncnc(Nc2ccccc2S(=O)(=O)C(C)C)n1` [ASP3026], the “inhibition of representative target kinases” value was “inhibits the two target kinases”.

The values above are taken from US20170147743A1, “RAPID IDENTIFICATION OF PHARMACOLOGICAL TARGETS AND ANTI-TARGETS FOR DRUG DISCOVERY AND REPURPOSING” (UNIVERSITY OF MIAMI, priority 2015, published 2017).
